Laboratory results: patent publication US7524504B1, “Anti-glycation hydrolysate of G. lucidum” (priority 2008, dated 2009)

Tested on: AGE-related proteins
Test: Inhibition of AGE-related proteins (HSA + glucose incubation, fluorescence)
Format: biochemical, human
Details: 7 days of incubation
Experimental: Inhibition of AGE-related proteins was assayed according to the following method. First, a reaction mixture was prepared by mixing 20 mg/ml of human serum albumin (HSA) in 200 mM phosphate buffer (pH 7.4) with 500 mM [90.08 mg/ml] of glucose and 0.02% [0.2 mg/ml] sodium azide (as a preservative). The reaction mixture was incubated at 37° C. for three weeks, during which time AGE-related proteins were produced via a Maillard-type reaction. After 7, 14 and 21 days, aliquots of the reaction mixture were passed through a molecular weight sieve (PD-10 column) and equilibrated in water to remove free glucose and Schiff base. […] The latter reaction generates fluorescent by-products with fluorescence proportional to the amount of accumulated AGE-related proteins as determined with a microplate fluorescence reader (Bio-Tek FL600) at an excitation wavelength of 360 nm and an emission wavelength of 440 nm.
To aliquots of the initial reaction mixture capable of producing AGE-related endproducts as described above were added varying concentrations of extract of G. lucidum according to the present invention (i.e., hydrolyzed with acid protease of R. miehei and thereafter rendered substantially devoid of acid protease activity). […] Fluorescence was measured after 7 days of incubation in the reaction mixture as set out above.

N=C(N)NN [aminoguanidine, Aminoguanidine]
Fluorescence (at 440 nm), normalized to 100 (100 mM + Positive Control): 73 | Fluorescence (at 440 nm), normalized to 100 (200 mM + Positive Control): 45
